Four compounds from PMC10581841, “Rapid Separation of Asiatic Acid, Quercetin, and Kaempferol from Traditional Chinese Medicine Centella asiatica (L.) Urban Using HSCCC-Semi-Prep-HPLC and the Assessment of Their Potential as Fatty Acid Synthase Inhibitors” (International Journal of Analytical Chemistry, 2023) can be followed below.

Molecules are shown by their SMILES. Read-outs that look alike come from different tables or passages of the source.

The target in this test is T1, fatty acid synthetase (FAS) (Anas platyrhynchos, UniProt A0A0D3LZ43).
T1 construct: native enzyme purified from fresh duck liver
Briefly: UV spectrophotometric FAS activity assay at […] nm (NADPH). The format is biochemical.

[1] abbreviates: read-out: IC50 (μg/mL) (converted).

T1 sequence (A0A0D3LZ43 1-2514): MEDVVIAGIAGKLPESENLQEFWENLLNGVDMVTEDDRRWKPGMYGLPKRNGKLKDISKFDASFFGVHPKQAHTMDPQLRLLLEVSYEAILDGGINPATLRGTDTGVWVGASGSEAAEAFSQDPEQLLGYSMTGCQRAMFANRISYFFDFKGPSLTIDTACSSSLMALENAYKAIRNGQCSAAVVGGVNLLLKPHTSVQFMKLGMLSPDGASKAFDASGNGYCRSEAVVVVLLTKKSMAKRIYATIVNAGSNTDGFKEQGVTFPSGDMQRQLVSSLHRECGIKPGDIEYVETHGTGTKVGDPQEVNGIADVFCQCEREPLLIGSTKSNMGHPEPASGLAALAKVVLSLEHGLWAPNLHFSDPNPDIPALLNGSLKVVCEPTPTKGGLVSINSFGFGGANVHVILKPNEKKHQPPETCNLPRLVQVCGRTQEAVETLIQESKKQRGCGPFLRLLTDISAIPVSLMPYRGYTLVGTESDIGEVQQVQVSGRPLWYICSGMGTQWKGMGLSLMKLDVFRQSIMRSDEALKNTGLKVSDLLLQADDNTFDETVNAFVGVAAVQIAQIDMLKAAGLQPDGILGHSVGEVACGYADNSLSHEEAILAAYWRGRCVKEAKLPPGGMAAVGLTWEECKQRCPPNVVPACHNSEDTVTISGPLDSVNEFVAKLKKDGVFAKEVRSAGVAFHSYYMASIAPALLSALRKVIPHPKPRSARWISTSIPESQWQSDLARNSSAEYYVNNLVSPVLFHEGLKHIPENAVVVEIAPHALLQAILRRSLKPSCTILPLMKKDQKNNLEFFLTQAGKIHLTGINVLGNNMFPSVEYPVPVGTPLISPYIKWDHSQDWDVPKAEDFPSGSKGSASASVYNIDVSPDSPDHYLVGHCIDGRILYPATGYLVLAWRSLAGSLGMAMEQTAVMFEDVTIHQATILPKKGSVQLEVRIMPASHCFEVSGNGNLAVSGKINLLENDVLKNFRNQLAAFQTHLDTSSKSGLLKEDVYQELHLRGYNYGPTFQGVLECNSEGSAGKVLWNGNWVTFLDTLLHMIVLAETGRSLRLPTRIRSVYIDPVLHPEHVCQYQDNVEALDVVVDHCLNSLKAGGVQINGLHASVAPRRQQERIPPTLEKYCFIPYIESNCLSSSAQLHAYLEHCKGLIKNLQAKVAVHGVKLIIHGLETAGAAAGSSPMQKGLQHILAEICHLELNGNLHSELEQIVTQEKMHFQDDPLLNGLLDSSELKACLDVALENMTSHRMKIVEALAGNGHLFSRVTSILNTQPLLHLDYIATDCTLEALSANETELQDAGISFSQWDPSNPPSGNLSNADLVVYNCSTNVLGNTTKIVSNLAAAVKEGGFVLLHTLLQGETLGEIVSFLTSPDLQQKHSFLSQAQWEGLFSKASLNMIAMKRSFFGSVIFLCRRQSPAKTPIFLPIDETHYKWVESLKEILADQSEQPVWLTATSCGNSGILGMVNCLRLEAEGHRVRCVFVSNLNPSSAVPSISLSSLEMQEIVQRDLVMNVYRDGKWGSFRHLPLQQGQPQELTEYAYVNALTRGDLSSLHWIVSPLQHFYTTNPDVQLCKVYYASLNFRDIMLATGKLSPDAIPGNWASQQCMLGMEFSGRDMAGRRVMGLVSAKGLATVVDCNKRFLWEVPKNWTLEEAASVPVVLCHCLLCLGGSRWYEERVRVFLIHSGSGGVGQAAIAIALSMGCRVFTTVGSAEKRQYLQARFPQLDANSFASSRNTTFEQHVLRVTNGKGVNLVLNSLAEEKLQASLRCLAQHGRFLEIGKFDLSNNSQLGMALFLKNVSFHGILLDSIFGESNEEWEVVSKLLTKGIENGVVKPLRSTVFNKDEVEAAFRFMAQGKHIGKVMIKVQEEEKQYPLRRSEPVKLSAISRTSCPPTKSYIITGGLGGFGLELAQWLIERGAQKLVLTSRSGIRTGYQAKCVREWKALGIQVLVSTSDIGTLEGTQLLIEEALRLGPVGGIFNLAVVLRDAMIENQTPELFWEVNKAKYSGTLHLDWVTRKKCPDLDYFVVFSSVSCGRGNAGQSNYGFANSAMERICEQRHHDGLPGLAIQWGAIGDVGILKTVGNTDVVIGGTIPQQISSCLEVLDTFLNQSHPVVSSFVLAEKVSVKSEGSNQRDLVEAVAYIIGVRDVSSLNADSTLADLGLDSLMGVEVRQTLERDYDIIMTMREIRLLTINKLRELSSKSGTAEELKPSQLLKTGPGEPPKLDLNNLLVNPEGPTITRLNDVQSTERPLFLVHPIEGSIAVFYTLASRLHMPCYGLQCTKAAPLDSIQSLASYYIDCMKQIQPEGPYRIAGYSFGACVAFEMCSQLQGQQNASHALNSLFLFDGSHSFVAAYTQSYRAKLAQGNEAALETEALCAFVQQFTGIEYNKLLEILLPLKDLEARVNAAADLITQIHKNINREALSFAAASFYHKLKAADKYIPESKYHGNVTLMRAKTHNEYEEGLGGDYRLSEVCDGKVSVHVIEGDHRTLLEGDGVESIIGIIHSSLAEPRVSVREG

As for `C[C@H]1[C@H](C)CC[C@]2(C(=O)O)CC[C@]3(C)C(=CC[C@@H]4[C@@]5(C)C[C@@H](O)[C@H](O)[C@@](C)(CO)[C@@H]5CC[C@]43C)[C@H]12` [AA, asiatic acid], the IC50 under setting [1] is 19.5 µM.

As to `O=c1c(O)c(-c2ccc(O)cc2)oc2cc(O)cc(O)c12` [KPL, kaempferol], the IC50 under setting [1] was 129 µM.

Take `C[C@H]1[C@H](C)CC[C@]2(C(=O)O)CC[C@]3(C)C(=CC[C@@H]4[C@@]5(C)C[C@@H](O)[C@H](O)[C@@](C)(CO)[C@@H]5[C@H](O)C[C@]43C)[C@H]12` [MA, madecassic acid]: the IC50 was 21.5 µM.

`O=c1c(O)c(-c2ccc(O)c(O)c2)oc2cc(O)cc(O)c12` [QCN, quercetin]: the IC50 was 143 µM.
